{"source": "patent US10583146B2", "about": "“Pharmaceutical compositions for glucocorticoid replacement therapy” (Shire ViroPharma Incorporated, priority 2004, dated 2020)", "key": {"[1]": {"assay": "Equivalent doses of glucocorticoids (hydrocortisone equivalents) for systemic glucocorticoid therapy", "conditions": "per 1 mg of the glucocorticoid", "description": "The term “hydrocortisone equivalents” is used herein to define the amount in mg of a specific glucocorticoid that corresponds to 1 mg of hydrocortisone for the purpose of systemic glucocorticoid therapy as generally understood by medical practitioners. The term is based on the fact that the individual glucocorticoids have different potencies and in order to achieve a desired therapeutic effect different doses of the individual glucocorticoids are required. Equivalent doses of the glucocorticoids can be calculated based on the following table."}, "[2]": {"conditions": "equivalent dose for systemic glucocorticoid therapy; cited from earlier work"}, "[3]": {"assay": "In vivo plasma cortisol profile in healthy volunteers with suppressed endogenous glucocorticoid secretion", "set-up": "species or system human", "description": "The in vivo experiments reported herein were carried out on healthy volunteers. At 6 pm and 11 pm the day before administration of the test composition, the endogenous cortisol secretion was suppressed by oral administration of 2 mg of betamethasone.\nThe test composition was administered to healthy volunteers. The volunteers were in fasted state and were not allowed to take any food until noon. In the case a tablet is administered, it is ingested together with 200 ml of water. The test composition is administered between 8 am and 10 am on the day following the suppression of endogenous glucocorticoid secretion.\nIn vivo plasma profiles in humans, N=1 per composition\nDexamethasone suppression test, fasting state, otherwise as described in the paragraph denoted “Method”.\nTwo films were prepared essentially similar to Example 20—composition A. Film A contains 10 mg of hydrocortisone and film B contains 11.2 mg of hydrocortisone acetate.\nThe hydrocortisone compositions were tested in two human subjects after labial administration. The subjects had their endogenous glucocorticoid secretion suppressed by synthetic glucocorticoids. The plasma concentration of cortisol was monitored during 360 min after the labial administration, and the serum concentration time profiles from these two different subjects are shown in FIGS. 10 and 11.\nThe compositions were tested after oral administration to two human subjects (FIG. 12)."}}, "data": [{"smiles": "C[C@]12C=CC(=O)C=C1CC[C@@H]1[C@@H]2[C@@H](O)C[C@@]2(C)[C@H]1CC[C@]2(O)C(=O)CO", "note": "[Prednisolone]", "values": [{"measurement": "Hydrocortisone equivalent (1 mg of the glucocorticoid corresponds to the listed amount in mg of hydrocortisone)", "setting": "[1]", "value": 4, "unit": "mg"}, {"measurement": "Equivalent amount", "setting": "[2]", "value": 5, "unit": "mg"}]}, {"smiles": "C[C@@H]1C[C@H]2[C@@H]3C[C@H](F)C4=CC(=O)C=C[C@]4(C)[C@H]3[C@@H](O)C[C@]2(C)[C@@]1(O)C(=O)CO", "note": "[Paramethasone]", "values": [{"measurement": "Hydrocortisone equivalent (1 mg of the glucocorticoid corresponds to the listed amount in mg of hydrocortisone)", "setting": "[1]", "value": 10, "unit": "mg"}, {"measurement": "Equivalent amount", "setting": "[2]", "value": 2, "unit": "mg"}]}, {"smiles": "CC(=O)OCC(=O)[C@@]1(O)CC[C@H]2[C@@H]3CCC4=CC(=O)CC[C@]4(C)[C@H]3C(=O)C[C@@]21C", "note": "[Cortisone acetate]", "values": [{"measurement": "Hydrocortisone equivalent (1 mg of the glucocorticoid corresponds to the listed amount in mg of hydrocortisone)", "setting": "[1]", "value": 0.8, "unit": "mg"}, {"measurement": "Equivalent amount", "setting": "[2]", "value": 25, "unit": "mg"}]}, {"smiles": "C[C@]12C=CC(=O)C=C1CC[C@H]1[C@@H]3C[C@@H](O)[C@](O)(C(=O)CO)[C@@]3(C)C[C@H](O)[C@@]12F", "note": "[Triamcinolone]", "values": [{"measurement": "Hydrocortisone equivalent (1 mg of the glucocorticoid corresponds to the listed amount in mg of hydrocortisone)", "setting": "[1]", "value": 5, "unit": "mg"}, {"measurement": "Equivalent amount", "setting": "[2]", "value": 4, "unit": "mg"}]}, {"smiles": "CC(=O)OCC(=O)[C@@]1(O)CC[C@H]2[C@@H]3CCC4=CC(=O)CC[C@]4(C)[C@H]3[C@@H](O)C[C@@]21C", "note": "[hydrocortisone acetate]", "values": [{"measurement": "suitability for immediate release judged from in vivo plasma profiles", "setting": "[3]; Example 18 thin-layer films, humans, N=1 per composition, fasting state, FIGS. 5-7", "value": "does not seem to be suitable for an immediate release composition"}]}, {"smiles": "C[C@]12CCC(=O)C=C1CC[C@@H]1[C@@H]2[C@@H](O)C[C@@]2(C)[C@H]1CC[C@]2(O)C(=O)CO", "note": "[Hydrocortisone]", "values": [{"measurement": "Hydrocortisone equivalent (1 mg of the glucocorticoid corresponds to the listed amount in mg of hydrocortisone)", "setting": "[1]", "value": 1, "unit": "mg"}, {"measurement": "time at which the first measured plasma concentration of cortisol was attained", "setting": "[3]; Example 20 thin-layer film, 10 mg hydrocortisone, labial administration, two human subjects, FIGS. 10 and 11", "value": "10 to 15", "unit": "min"}, {"measurement": "rate and extent of mucosal uptake", "setting": "[3]; Example 20 thin-layer film, labial administration, two human subjects", "value": "high"}, {"measurement": "Equivalent amount", "setting": "[2]", "value": 20, "unit": "mg"}]}]}
